Measured values published in patent US7750017B2, “Heterocycles” (Bayer Schering Pharma Aktiengesellschaft, priority 2004, dated 2010).
Counter-ions that a name gives are not always drawn.

Key:
[1] = system: A431 cells [human epidermoid carcinoma, overexpressing HER1 (EGFR, ErbB1)]; assay: In vitro tumor cell proliferation assay (Cell Titer-Glo luminescent cell viability), A431 cells; type: cell-based; conditions: A-431, 72 h, 72 hours of drug exposure, Cell Titer-Glo readout, read-out: IC50, anti-proliferative activity in A431 cells
[2] = system: BT474 [human breast carcinoma, overexpressing HER2 (ErbB2)]; assay: In vitro tumor cell proliferation assay (Cell Titer-Glo luminescent cell viability), BT474 cells; type: cell-based; conditions: BT-474, 72 h, 72 hours of drug exposure, Cell Titer-Glo readout, read-out: IC50, anti-proliferative activity in BT474 cells

IC50 [1] [µM]	IC50 [2] [µM]	Structure (SMILES)
≤ 50	≤ 5	Clc1cc(Nc2ncnc3sc4cc(CCN5CCCC5)ccc4c23)ccc1OCc1ccccn1 [Example 87, N-[3-chloro-4-(pyridin-2-ylmethoxy)phenyl]-7-(2-pyrrolidin-1-ylethyl)[1]benzothieno[2,3-d] pyrimidin-4-amine trifluoroacetate]
≤ 50	≤ 0.5	OCCNCCc1ccc2c(c1)sc1ncnc(Nc3ccc(OCc4ccccn4)c(Cl)c3)c12 [Example 88, 2-{[2-(4-{[3-chloro-4-(pyridin-2-ylmethoxy)phenyl]amino}[1]benzothieno[2,3-d]pyrimidin-7-yl)ethyl]amino}ethanol trifluoroacetate (salt)]
≤ 5	≤ 0.5	CCNCCc1ccc2c(c1)sc1ncnc(Nc3ccc(OCc4ccccn4)c(Cl)c3)c12 [Example 90, N-[3-chloro-4-(pyridin-2-ylmethoxy)phenyl]-7-[2-(ethylamino)ethyl][1]benzothieno [2,3-d]pyrimidin-4-amine trifluoroacetate]
≤ 50	≤ 5	O=C(O)Cc1ccc2c(c1)sc1ncnc(Nc3ccc(OCc4ccccn4)c(Cl)c3)c12 [Example 94, (4-{[3-chloro-4-(pyridin-2-ylmethoxy)phenyl]amino}[1]benzothieno[2,3-d]pyrimidin-7-yl)acetic acid]
≤ 50	≤ 5	O=C(Cc1ccc2c(c1)sc1ncnc(Nc3ccc(OCc4ccccn4)c(Cl)c3)c12)NCCOCCO [Example 98, 2-(4-{[3-chloro-4-(pyridin-2-ylmethoxy)phenyl]amino}[1]benzothieno[2,3-d]pyrimidin-7-yl)-N-[2-(2-hydroxyethoxy)ethyl] acetamide]
≤ 5	≤ 0.5	NS(=O)(=O)OCCc1ccc2c(c1)sc1ncnc(Nc3ccc(OCc4ccccn4)c(Cl)c3)c12 [Example 109, 2-(4-{[3-chloro-4-(pyridin-2-ylmethoxy)phenyl]amino}[1]benzothieno[2,3-d]pyrimidin-7-yl)ethyl sulfamate]
≤ 50	≤ 5	Oc1ccc2c(c1)sc1ncnc(Nc3ccc(OCc4ccccn4)c(Cl)c3)c12 [Example 110, 4-{[3-chloro-4-(pyridin-2-ylmethoxy)phenyl]amino}[1] benzothieno[2,3-d]pyrimidin-7-ol]
≤ 50	≤ 5	Fc1cccc(Cn2ncc3cc(Nc4ncnc5sc6cc(Br)ccc6c45)ccc32)c1 [Example 113, 7-bromo-N-[1-(3-fluorobenzyl)-1H-indazol-5-yl][1]benzothieno [2,3-d]pyrimidin-4-amine]
≤ 50	≤ 0.5	C=Cc1ccc2c(c1)sc1ncnc(Nc3ccc4c(cnn4Cc4cccc(F)c4)c3)c12 [Example 114, N-[1-(3-fluorobenzyl)-1H-indazol-5-yl]-7-vinyl[1]benzothieno[2,3-d] pyrimidin-4-amine]
≤ 5	≤ 0.5	OCC(O)c1ccc2c(c1)sc1ncnc(Nc3ccc4c(cnn4Cc4cccc(F)c4)c3)c12 (stereo not shown) [Example 115, 1-(4-{[1-(3-fluorobenzyl)-1H-indazol-5-yl]amino}[1]benzothieno [2,3-d]pyrimidin-7-yl)ethane-1,2-diol]
≤ 5	≤ 0.5	OC[C@@H](O)c1ccc2c(c1)sc1ncnc(Nc3ccc4c(cnn4Cc4cccc(F)c4)c3)c12 [Example 116, (1S)-1-(4-{[1-(3-fluorobenzyl)-1H-indazol-5-yl]amino}[1]benzothieno [2,3-d]pyrimidin-7-yl)ethane-1,2-diol]
≤ 5	≤ 0.5	OC[C@H](O)c1ccc2c(c1)sc1ncnc(Nc3ccc4c(cnn4Cc4cccc(F)c4)c3)c12 [Example 117, (1R)-1-(4-{[1-(3-fluorobenzyl)-1H-indazol-5-yl]amino}[1]benzothieno [2,3-d]pyrimidin-7-yl)ethane-1,2-diol]

The remaining lines, values behind:

Structure (SMILES)	IC50 [1] [µM]	IC50 [2] [µM]
Clc1cc(Nc2ncnc3sc4cc(CCN5CCNCC5)ccc4c23)ccc1OCc1ccccn1 [Example 89, N-[3-chloro-4-(pyridin-2-ylmethoxy)phenyl]-7-(2-piperazin-1-ylethyl)[1]benzothieno[2,3-d] pyrimidin-4-amine trifluoroacetate]	≤ 50	≤ 0.5
COCCN(CCOC)CCc1ccc2c(c1)sc1ncnc(Nc3ccc(OCc4ccccn4)c(Cl)c3)c12 [Example 93, 7-{2-[bis(2-methoxyethyl)amino]ethyl}-N-[3-chloro-4-(pyridin-2-ylmethoxy)phenyl][1]benzothieno [2,3-d]pyrimidin-4-amine trifluoroacetate]	≤ 50	≤ 0.5
O=C(Cc1ccc2c(c1)sc1ncnc(Nc3ccc(OCc4ccccn4)c(Cl)c3)c12)N1CCOCC1 [Example 95, N-[3-chloro-4-(pyridin-2-ylmethoxy)phenyl]-7-(2-morpholin-4-yl-2-oxoethyl)[1]benzothieno[2,3-d]pyrimidin-4-amine]	≤ 50	≤ 5
CN1CCN(C(=O)Cc2ccc3c(c2)sc2ncnc(Nc4ccc(OCc5ccccn5)c(Cl)c4)c23)CC1 [Example 96, N-[3-chloro-4-(pyridin-2-ylmethoxy)phenyl]-7-[2-(4-methylpiperazin-1-yl)-2-oxoethyl][1]benzothieno[2,3-d] pyrimidin-4-amine]	≤ 50	≤ 0.5
O=C(Cc1ccc2c(c1)sc1ncnc(Nc3ccc(OCc4ccccn4)c(Cl)c3)c12)NCCN1CCOCC1 [Example 97, 2-(4-{[3-chloro-4-(pyridin-2-ylmethoxy)phenyl]amino}[1]benzothieno[2,3-d]pyrimidin-7-yl)-N-(2-morpholin-4-ylethyl) acetamide]	≤ 50	≤ 0.5
O=C(Cc1ccc2c(c1)sc1ncnc(Nc3ccc(OCc4ccccn4)c(Cl)c3)c12)N1CCCC1 [Example 99, N-[3-chloro-4-(pyridin-2-ylmethoxy)phenyl]-7-(2-oxo-2-pyrrolidin-1-ylethyl)[1]benzothieno [2,3-d]pyrimidin-4-amine]	≤ 50	≤ 5
CN(C)CCNC(=O)Cc1ccc2c(c1)sc1ncnc(Nc3ccc(OCc4ccccn4)c(Cl)c3)c12 [Example 100, 2-(4-{[3-chloro-4-(pyridin-2-ylmethoxy)phenyl]amino}[1]benzothieno[2,3-d]pyrimidin-7-yl)-N-[(2-dimethylamino)ethyl]acetamide]	≤ 50	≤ 0.5
COCCN(CCOC)C(=O)Cc1ccc2c(c1)sc1ncnc(Nc3ccc(OCc4ccccn4)c(Cl)c3)c12 [Example 101, 2-(4-{[3-chloro-4-(pyridin-2-ylmethoxy)phenyl]amino}[1]benzothieno[2,3-d]pyrimidin-7-yl)-N,N-bis (2-methoxyethyl)acetamide]	≤ 5	≤ 5
CS(=O)(=O)CCNC(=O)Cc1ccc2c(c1)sc1ncnc(Nc3ccc(OCc4ccccn4)c(Cl)c3)c12 [Example 102, 2-(4-{[3-chloro-4-(pyridin-2-ylmethoxy)phenyl]amino}[1]benzothieno[2,3-d]pyrimidin-7-yl)-N-[2-(methylsulfonyl)ethyl] acetamide]	≤ 50	≤ 0.5
COCCN(C)C(=O)Cc1ccc2c(c1)sc1ncnc(Nc3ccc(OCc4ccccn4)c(Cl)c3)c12 [Example 103, 2-(4-{[3-chloro-4-(pyridin-2-ylmethoxy)phenyl]amino}[1]benzothieno[2,3-d]pyrimidin-7-yl)-N-(2-methoxyethyl)-N-methylacetamide]	≤ 50	≤ 5
COCCN1CCN(C(=O)Cc2ccc3c(c2)sc2ncnc(Nc4ccc(OCc5ccccn5)c(Cl)c4)c23)CC1 [Example 104, N-[3-chloro-4-(pyridin-2-ylmethoxy)phenyl]-7-{2-[4-(2-methoxyethyl)piperazin-1-yl]-2-oxoethyl}[1]benzothieno [2,3-d]pyrimidin-4-amine]	≤ 50	≤ 0.5
O=C(Cc1ccc2c(c1)sc1ncnc(Nc3ccc(OCc4ccccn4)c(Cl)c3)c12)N(CCO)CCO [Example 105, 2(4-{[3-chloro-4-(pyridin-2-ylmethoxy)phenyl]amino}[1]benzothieno[2,3-d]pyrimidin-7-yl)-N,N-bis-(2-hydroxyethyl) acetamide]	≤ 50	≤ 5
O=C(Cc1ccc2c(c1)sc1ncnc(Nc3ccc(OCc4ccccn4)c(Cl)c3)c12)NCCO [Example 106, 2(4-{[3-chloro-4-(pyridin-2-ylmethoxy)phenyl]amino}[1]benzothieno[2,3-d]pyrimidin-7-yl)-N-(2-hydroxyethyl)acetamide]	≤ 50	≤ 5
COC[C@@H]1CCCN1C(=O)Cc1ccc2c(c1)sc1ncnc(Nc3ccc(OCc4ccccn4)c(Cl)c3)c12 [Example 107, N-[3-chloro-4-(pyridin-2-ylmethoxy)phenyl]-7-{2-[2-(methoxymethyl)pyrrolidin-1-yl]-2-oxoethyl}[1]benzothieno[2,3-d] pyrimidin-4-amine]	≤ 5	≤ 5
O=C(Cc1ccc2c(c1)sc1ncnc(Nc3ccc(OCc4ccccn4)c(Cl)c3)c12)N1CCC[C@@H]1CO [Example 108, {1-[(4-{[3-chloro-4-(pyridin-2-ylmethoxy)phenyl]amino}[1]benzothieno[2,3-d]pyrimidin-7-yl)acetyl]pyrrolidin-2-yl}methanol]	≤ 5	≤ 5
OC[C@@H](O)COc1ccc2c(c1)sc1ncnc(Nc3ccc(OCc4ccccn4)c(Cl)c3)c12 [Example 111, (2R)-3-[(4-{[3-chloro-4-(pyridin-2-ylmethoxy)phenyl]amino}[1]benzothieno[2,3-d]pyrimidin-7-yl)oxy]propane-1,2-diol]	≤ 50	≤ 0.5
OC[C@H](O)COc1ccc2c(c1)sc1ncnc(Nc3ccc(OCc4ccccn4)c(Cl)c3)c12 [Example 112, (2S)-3-[(4-{[3-chloro-4-(pyridin-2-ylmethoxy)phenyl]amino}[1]benzothieno[2,3-d]pyrimidin-7-yl)oxy]propane-1,2-diol]	≤ 5	≤ 0.5
